Source: patent publication US20230139445A1, “BACTERIAL CELLS WITH IMPROVED TOLERANCE TO DIACIDS” (priority 2016, published 2023)
Read-outs that look alike come from different tables or passages of the source.

What was measured:
[1] = tested on: Escherichia coli K-12 MG1655 and evolved isolates; assay type: cell-based; conditions: 45 g/L pimelic acid
Protocol: Five colonies from wild-type K-12 MG1655 and 10 individual colonies deriving from each population were inoculated into 300 μL M9+1% glucose in 96 well deepwell plates and incubated in a 300 rpm plate shaker at 37° C. The next day, cells were diluted 10× in M9+1% glucose and 30 μL was transferred into clear-bottomed 96 well half-deepwell plates (with rectangular wells) containing M9+1% glucose and M9+1% glucose+52.78 g/L glutaric acid or 55.56 g/L adipic acid, such that the final concentration of glutaric acid or adipic acid was 47.5 g/L or 50 g/L, respectively. In addition, cryogenic glycerol stocks of the overnight culture were saved in a 96 well plate format. Half deepwell plates were incubated at 37° C. with 225 rpm shaking in a Growth Profiler (Enzyscreen), with optical scans of the plates taken at 15 minute intervals. Green pixel values integrated over a 1 mm diameter circular area in each well were converted to OD600 values using a previously determined calibration between OD600 and green pixel values.
Additionally, each evolved isolate was tested for cross-tolerance toward other dicarboxylic acids of interest. […] All diacids tested were either the neutral sodium salts, or the free diacid was neutralized with sodium hydroxide to pH 7.0 for testing.

[2] = tested on: Escherichia coli K-12 MG1655; assay: Screening for tolerance in wild-type cells: growth in varying concentrations of neutralized diacid, Biolector; assay type: cell-based; conditions: for tlag (lag time), mean / μ (growth rate), mean: neutralized with sodium hydroxide
Protocol: Escherichia coli K-12 MG1655 was grown overnight in M9 minimal medium+1% glucose and subcultured the following morning to an initial OD600 of 0.05 in M9+1% glucose. Cells were grown to mid-exponential phase (OD600 0.7-1.0) and were back-diluted with fresh medium to an OD600 of 0.7. The diluted cells were used to inoculate M9+1% glucose containing varying concentrations of glutaric acid or adipic acid which were neutralized to pH 7.0 with sodium hydroxide, and growth was measured in FlowerPlates in a Biolector microbioreactor system (m2p-labs) at 37° C. with 1000 rpm shaking. The culture volume in each well was 1.4 mL.

SMILES: O=C(O)CCCCCC(=O)O [pimelic acid]
- growth rate μ (mean) ([1]; strain ADIP1-1): 0.432 h⁻¹
- lag time tlag (mean) ([1]; strain ADIP1-1): 9.6 h
- growth rate μ (mean) ([1]; strain ADIP1-9): 0.421 h⁻¹
- lag time tlag (mean) ([1]; strain ADIP1-9): 8.8 h
- growth rate μ (mean) ([1]; strain ADIP2-5): 0.474 h⁻¹
- lag time tlag (mean) ([1]; strain ADIP2-5): 11.0 h
- growth rate μ (mean) ([1]; strain ADIP2-6): 0.480 h⁻¹
- lag time tlag (mean) ([1]; strain ADIP2-6): 10.6 h
- growth rate μ (mean) ([1]; strain ADIP2-10): 0.479 h⁻¹
- lag time tlag (mean) ([1]; strain ADIP2-10): 10.8 h
- growth rate μ (mean) ([1]; strain ADIP3-2): 0.438 h⁻¹
- lag time tlag (mean) ([1]; strain ADIP3-2): 8.4 h
- growth rate μ (mean) ([1]; strain ADIP3-4): 0.435 h⁻¹
- lag time tlag (mean) ([1]; strain ADIP3-4): 8.5 h
- growth rate μ (mean) ([1]; strain ADIP3-8): 0.426 h⁻¹
- lag time tlag (mean) ([1]; strain ADIP3-8): 9.1 h
- growth rate μ (mean) ([1]; strain ADIP4-1): 0.348 h⁻¹
- lag time tlag (mean) ([1]; strain ADIP4-1): 9.9 h
- growth rate μ (mean) ([1]; strain ADIP4-8): 0.349 h⁻¹
- lag time tlag (mean) ([1]; strain ADIP4-8): 10.3 h
- growth rate μ (mean) ([1]; strain ADIP5-2): 0.385 h⁻¹
- lag time tlag (mean) ([1]; strain ADIP5-2): 8.7 h
- growth rate μ (mean) ([1]; strain ADIP5-6): 0.483 h⁻¹
- lag time tlag (mean) ([1]; strain ADIP5-6): 8.5 h
- growth rate μ (mean) ([1]; strain ADIP6-3): 0.346 h⁻¹
- lag time tlag (mean) ([1]; strain ADIP6-3): 10.4 h
- growth rate μ (mean) ([1]; strain ADIP6-9): 0.278 h⁻¹
- lag time tlag (mean) ([1]; strain ADIP6-9): 11.1 h
- growth rate μ (mean) ([1]; strain ADIP6-10): 0.360 h⁻¹
- lag time tlag (mean) ([1]; strain ADIP6-10): 9.7 h
- growth rate μ (mean) ([1]; strain ADIP7-2): 0.393 h⁻¹
- lag time tlag (mean) ([1]; strain ADIP7-2): 9.0 h
- growth rate μ (mean) ([1]; strain ADIP7-5): 0.376 h⁻¹
- lag time tlag (mean) ([1]; strain ADIP7-5): 9.4 h
- growth rate μ (mean) ([1]; strain ADIP8-3): 0.235 h⁻¹
- lag time tlag (mean) ([1]; strain ADIP8-3): 12.8 h
- growth rate μ (mean) ([1]; strain ADIP8-7): 0.268 h⁻¹
- lag time tlag (mean) ([1]; strain ADIP8-7): 12.8 h
- growth rate μ (mean) ([1]; strain ADIP8-10): 0.249 h⁻¹
- lag time tlag (mean) ([1]; strain ADIP8-10): 12.8 h
- growth rate μ (mean) ([1]; strain GLUT1-3): 0.369 h⁻¹
- lag time tlag (mean) ([1]; strain GLUT1-3): 10.4 h
- growth rate μ (mean) ([1]; strain GLUT1-9): 0.337 h⁻¹
- lag time tlag (mean) ([1]; strain GLUT1-9): 11.9 h
- growth rate μ (mean) ([1]; strain GLUT1-10): 0.399 h⁻¹
- lag time tlag (mean) ([1]; strain GLUT1-10): 13.1 h
- growth rate μ (mean) ([1]; strain GLUT2-1): 0.362 h⁻¹
- lag time tlag (mean) ([1]; strain GLUT2-1): 11.6 h
- growth rate μ (mean) ([1]; strain GLUT2-9): 0.349 h⁻¹
- lag time tlag (mean) ([1]; strain GLUT2-9): 10.3 h
- growth rate μ (mean) ([1]; strain GLUT2-10): 0.383 h⁻¹
- lag time tlag (mean) ([1]; strain GLUT2-10): 10.2 h
- growth rate μ (mean) ([1]; strain GLUT3-5): 0.280 h⁻¹
- lag time tlag (mean) ([1]; strain GLUT3-5): 17.6 h
- growth rate μ (mean) ([1]; strain GLUT3-7): 0.360 h⁻¹
- lag time tlag (mean) ([1]; strain GLUT3-7): 11.5 h
- growth rate μ (mean) ([1]; strain GLUT3-9): 0.351 h⁻¹
- lag time tlag (mean) ([1]; strain GLUT3-9): 15.7 h
- growth rate μ (mean) ([1]; strain GLUT4-1): 0.378 h⁻¹
- lag time tlag (mean) ([1]; strain GLUT4-1): 12.8 h
- growth rate μ (mean) ([1]; strain GLUT4-4): 0.388 h⁻¹
- lag time tlag (mean) ([1]; strain GLUT4-4): 13.2 h
- growth rate μ (mean) ([1]; strain GLUT4-10): 0.371 h⁻¹
- lag time tlag (mean) ([1]; strain GLUT4-10): 11.5 h
- growth rate μ (mean) ([1]; strain GLUT5-4): 0.433 h⁻¹
- lag time tlag (mean) ([1]; strain GLUT5-4): 12.1 h
- growth rate μ (mean) ([1]; strain GLUT5-5): 0.420 h⁻¹
- lag time tlag (mean) ([1]; strain GLUT5-5): 12.8 h
- growth rate μ (mean) ([1]; strain GLUT5-9): 0.428 h⁻¹
- lag time tlag (mean) ([1]; strain GLUT5-9): 13.0 h
- growth rate μ (mean) ([1]; strain GLUT6-4): 0.356 h⁻¹
- lag time tlag (mean) ([1]; strain GLUT6-4): 11.7 h
- growth rate μ (mean) ([1]; strain GLUT6-5): 0.348 h⁻¹
- lag time tlag (mean) ([1]; strain GLUT6-5): 11.3 h
- growth rate μ (mean) ([1]; strain GLUT6-10): 0.353 h⁻¹
- lag time tlag (mean) ([1]; strain GLUT6-10): 12.1 h
- growth rate μ (mean) ([1]; strain GLUT7-2): 0.349 h⁻¹
- lag time tlag (mean) ([1]; strain GLUT7-2): 11.6 h
- growth rate μ (mean) ([1]; strain GLUT7-6): 0.357 h⁻¹
- lag time tlag (mean) ([1]; strain GLUT7-6): 14.8 h
- growth rate μ (mean) ([1]; strain GLUT7-7): 0.335 h⁻¹
- lag time tlag (mean) ([1]; strain GLUT7-7): 14.1 h
- growth rate μ (mean) ([1]; strain GLUT8-5): 0.349 h⁻¹
- lag time tlag (mean) ([1]; strain GLUT8-5): 11.8 h
- growth rate μ (mean) ([1]; strain GLUT8-6): 0.184 h⁻¹
- lag time tlag (mean) ([1]; strain GLUT8-6): 20.9 h
- growth rate μ (mean) ([1]; strain GLUT8-9): 0.259 h⁻¹
- lag time tlag (mean) ([1]; strain GLUT8-9): 11.2 h
- growth rate μ (mean) ([1]; strain MG1655 (Table 28)): 0.275 h⁻¹
- lag time tlag (mean) ([1]; strain MG1655 (Table 28)): 13.4 h
- growth rate μ (mean) ([1]; strain MG1655 (Table 29)): 0.271 h⁻¹
- lag time tlag (mean) ([1]; strain MG1655 (Table 29)): 12.4 h
- tlag (lag time), mean ([2]; 10 g/L): 1.9 h
- μ (growth rate), mean ([2]; 10 g/L, M9+1% glucose, 37° C): 0.694 h⁻¹
- tlag (lag time), mean ([2]; 20 g/L): 2.4 h
- μ (growth rate), mean ([2]; 20 g/L): 0.656 h⁻¹
- tlag (lag time), mean ([2]; 25 g/L): 2.5 h
- μ (growth rate), mean ([2]; 25 g/L): 0.572 h⁻¹
- tlag (lag time), mean ([2]; 30 g/L): 3.3 h
- μ (growth rate), mean ([2]; 30 g/L): 0.560 h⁻¹
- tlag (lag time), mean ([2]; 35 g/L): 4.1 h
- μ (growth rate), mean ([2]; 35 g/L): 0.534 h⁻¹
- tlag (lag time), mean ([2]; 40 g/L): 4.3 h
- μ (growth rate), mean ([2]; 40 g/L): 0.439 h⁻¹
- tlag (lag time), mean ([2]; 45 g/L): 4.6 h
- μ (growth rate), mean ([2]; 45 g/L): 0.280 h⁻¹
- growth of K-12 MG1655 ([2]; at 45 g/L): Robust growth was still observed
